Data published in paper PMC9972884 (Biochemistry, 2009).
Like-named read-outs stand apart in the source and are kept apart here.

What was measured:
[1] = biological target: T1, PPARγ (Homo sapiens, UniProt P37231); format: cell-based; conditions: for effect on induction by rosiglitazone (coincubation): 0–5 µM NO2-LA isomer with fixed 0.1 µM rosiglitazone; for mean induction as a percentage of induction by 0.1 µM rosiglitazone (100%): ligands at 5 µM, mean of 6–18 determinations ± SEM; for agonist (full or partial): relative to rosiglitazone, defined as full agonist; for PPARγ activation (in words): concentrations as high as 100 µM
T1 sequence (P37231 1-477 isoform P37231-2): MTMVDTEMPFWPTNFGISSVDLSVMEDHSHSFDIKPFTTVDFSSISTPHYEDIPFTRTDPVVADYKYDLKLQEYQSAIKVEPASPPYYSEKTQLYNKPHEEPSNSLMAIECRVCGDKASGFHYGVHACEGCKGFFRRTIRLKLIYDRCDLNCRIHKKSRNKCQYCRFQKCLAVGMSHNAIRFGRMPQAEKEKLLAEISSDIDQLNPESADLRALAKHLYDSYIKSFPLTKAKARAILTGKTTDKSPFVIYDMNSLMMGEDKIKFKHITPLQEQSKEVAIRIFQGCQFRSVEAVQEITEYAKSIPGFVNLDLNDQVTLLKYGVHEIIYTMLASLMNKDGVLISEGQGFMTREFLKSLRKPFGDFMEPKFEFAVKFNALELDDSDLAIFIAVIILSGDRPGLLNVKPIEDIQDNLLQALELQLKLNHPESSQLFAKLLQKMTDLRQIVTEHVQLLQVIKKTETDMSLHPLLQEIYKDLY

[2] = biological target: T2, GST-hPPARγ (recombinant human PPARγ) (Homo sapiens, UniProt P37231); experiment: Radioligand competition scintillation proximity binding assay, PPARγ
T2 sequence (P37231 1-505): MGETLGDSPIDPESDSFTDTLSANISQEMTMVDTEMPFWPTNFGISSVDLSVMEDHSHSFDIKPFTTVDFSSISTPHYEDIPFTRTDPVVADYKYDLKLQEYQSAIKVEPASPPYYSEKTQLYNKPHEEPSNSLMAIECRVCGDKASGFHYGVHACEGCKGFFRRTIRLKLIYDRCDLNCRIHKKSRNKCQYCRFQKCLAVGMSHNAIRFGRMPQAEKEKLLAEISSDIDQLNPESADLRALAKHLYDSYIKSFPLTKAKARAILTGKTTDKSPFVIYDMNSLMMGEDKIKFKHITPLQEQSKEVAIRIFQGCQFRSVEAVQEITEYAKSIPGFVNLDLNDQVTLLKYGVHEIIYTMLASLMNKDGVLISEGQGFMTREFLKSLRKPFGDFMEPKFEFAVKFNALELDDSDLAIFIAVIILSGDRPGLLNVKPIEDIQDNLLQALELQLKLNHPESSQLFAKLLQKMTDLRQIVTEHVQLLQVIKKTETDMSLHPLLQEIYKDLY

[3] = biological target: T3, GST-hPPARα (recombinant human PPARα) (Homo sapiens, UniProt Q07869); experiment: Radioligand competition scintillation proximity binding assay, PPARα
T3 sequence (Q07869 1-468): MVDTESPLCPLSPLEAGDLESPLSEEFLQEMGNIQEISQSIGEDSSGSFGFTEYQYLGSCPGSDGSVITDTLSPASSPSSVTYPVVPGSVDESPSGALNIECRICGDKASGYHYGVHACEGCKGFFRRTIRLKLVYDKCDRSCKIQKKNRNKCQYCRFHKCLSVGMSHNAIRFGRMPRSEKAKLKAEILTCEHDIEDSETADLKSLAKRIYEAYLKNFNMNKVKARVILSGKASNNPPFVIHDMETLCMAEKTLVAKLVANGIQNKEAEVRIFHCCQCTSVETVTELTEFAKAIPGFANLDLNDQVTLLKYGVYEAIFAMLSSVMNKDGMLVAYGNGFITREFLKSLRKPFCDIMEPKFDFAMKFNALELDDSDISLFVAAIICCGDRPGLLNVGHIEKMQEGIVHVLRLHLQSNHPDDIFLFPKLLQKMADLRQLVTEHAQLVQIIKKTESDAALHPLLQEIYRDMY

| SMILES | EC50 fold higher than for 12-NO2-LA [1] | maximum level of PPARγ activation as % of that of the 12-NO2 isomer [1] | effect on induction by rosiglitazone (coincubation) [1] | mean induction as a percentage of induction by 0.1 µM rosiglitazone (100%) [1] [%] | agonist (full or partial) [1] | agonist (full or partial) ([1]; listed as 13-NO2-LA) | IC50 [2] [µM] | IC50 [3] [µM] | PPARγ activation (in words) [1] | PPARγ activation (in words) ([1]; listed as Linoleic acid) | binding affinity for PPARγ (in words) [2] | agonist (full or partial) ([1]; listed as 12-NO2) | agonist (full or partial) ([1]; listed as 12-NO2-LA) | apparent affinity for PPARα (in words) [3] |
| --- | --- | --- | --- | --- | --- | --- | --- | --- | --- | --- | --- | --- | --- | --- |
| CCCCC/C(=C\C/C=C\CCCCCCCC(=O)O)[N+](=O)[O-] [13-NO2-linoleic acid, (9Z,12E)-13-nitrooctadeca-9,12-dienoic acid] | more than 10 fold | ~ 50% | significantly reduced the level of induction by rosiglitazone | 41 ± 5 | partial | partial agonists | 0.44 | > 15 |  |  |  |  |  |  |
| CCCCC/C=C\C/C=C\CCCCCCCC(=O)O [linoleic acid, (9Z,12Z)-octadeca-9,12-dienoic acid, reference compound] |  |  |  |  |  |  | 10.7 | > 15 | negligible PPARγ activation | does not support activation | very low affinity |  |  |  |
| CCCCC/C=C(\C/C=C\CCCCCCCC(=O)O)[N+](=O)[O-] [12-NO2-linoleic acid, (9Z,12E)-12-nitrooctadeca-9,12-dienoic acid] |  |  | less pronounced | 76 ± 9 | partial |  |  |  |  |  |  | nearly full agonist activity | partial agonists | very low |
